In this experiment the test system is mesenteric vascular bed. Briefly: In vitro arteries relaxation test (perfused mesenteric vascular bed pre-contracted with noradrenaline). Conditions: inferred from HPLC-MSMS/CCD of EHA and fraction 4 with FIGS. 6a and 6e; component not tested alone. Further details: species or system Wistar mice. The protocol:
The vasodilatory activity of EHA and/or its fractions was determined and quantified by ID50 (Inhibitory Dose at 50%) in preparation of the mesenteric arterial bed of male and adult Wistar mice, in vitro. After anesthesia (thiopental, […] ip), a broad laparotomy is performed to the mice in order to expose the entire mesenteric circulation. The mesenteric artery was isolated and cannulated with cannula and polyethylene. Immediately 1 to 2 ml of Krebs nourishing solution with heparin was injected in order to avoid mesenteric intravascular coagulation. The mesenteric vascular bed was dissected, placed in a heated tub and perfused with Krebs solution at 37° C., by peristaltic pump (4 ml/minute). The perfusion pressure was recorded continuously in computer, through program (PowerLab 4/30). After a period of equilibration, it was added (30 μM) noradrenaline in the Krebs fluid in order to raise the vascular tone of the mesenteric vascular bed. Once the noradrenaline constant pressure response was obtained in the mesenteric vascular bed, increasing doses of EHA and/or fractions in the mesenteric vascular bed were injected. Perfusion pressure reductions induced by extracts and/or fractions were analyzed by the computer and expressed as reduction percent of noradrenaline-induced pressure response. […]

As to `Oc1cc(O)c2c(c1)O[C@H](c1ccc(O)c(O)c1)[C@H](O)[C@H]2c1c(O)cc(O)c2c1O[C@H](c1ccc(O)c(O)c1)[C@H](O)C2` [procyanidin B2], the “activity of extract component inferred from chromatogram and artery relaxation test” value was “compound with the highest activity”.

(Values after patent US12029774B2, “Açai berry seed extract, fractions of açai berry seed extracts, process for obtaining açai berry seed extracts, pharmaceutical and food compositions and method for the treatment of diseases or disorders with açai berry seed extract” (Power Seed Comércio e Representações Ltda, priority 2018, dated 2024).)
